# Where a name gives a salt, the structure may show the parent alone.
# Target: T1, adenosine A2A receptor (Rattus norvegicus, UniProt P30543)
# T1 construct: from tissue; host or cells: rat corpus striatum membrane preparation
# Assay: Adenosine A2A receptor binding test (3H-CGS 21680 binding)
# Conditions: test compound 10^−7 mol/L; 3H-CGS 21680 binding, rat corpus striatum
# Procedure: The test was carried out according to the method of Bruns et al. [Molecular Pharmacology, vol. 29, p.
# Rat corpus striatum was suspended in an ice-cold 50 mmol/L tris(hydroxymethyl)aminomethane hydrochloride (referred to as “Tris HCl” hereinafter) buffer (pH 7.7) using a Polytron homogenizer (produced by Kinematica Co.). The suspension was centrifuged (50,000×g, 10 minutes), and the resulting precipitate was again suspended in the same amount of a 50 mmol/L Tris HCl buffer, followed by centrifugation under the same conditions. The resulting finalprecipitate was again suspended in a 50 mmol/L-Tris HCl buffer [containing 10 mmol/L of magnesium chloride and 0.02 unit/mg tissue of adenosine deaminase (produced by Sigma Co.)] so that the tissue concentration was 5 mg (wet weight)/mL.
# The radioactivity on the filter was determined with a liquid scintillation counter (produced by Packard Instrument Co.).
# In the equation, X represents Amount of binding in the presence of a medicament, Y represents Amount of nonspecific binding, and Z represents Amount of total binding.
# T1 sequence (P30543 whole entry): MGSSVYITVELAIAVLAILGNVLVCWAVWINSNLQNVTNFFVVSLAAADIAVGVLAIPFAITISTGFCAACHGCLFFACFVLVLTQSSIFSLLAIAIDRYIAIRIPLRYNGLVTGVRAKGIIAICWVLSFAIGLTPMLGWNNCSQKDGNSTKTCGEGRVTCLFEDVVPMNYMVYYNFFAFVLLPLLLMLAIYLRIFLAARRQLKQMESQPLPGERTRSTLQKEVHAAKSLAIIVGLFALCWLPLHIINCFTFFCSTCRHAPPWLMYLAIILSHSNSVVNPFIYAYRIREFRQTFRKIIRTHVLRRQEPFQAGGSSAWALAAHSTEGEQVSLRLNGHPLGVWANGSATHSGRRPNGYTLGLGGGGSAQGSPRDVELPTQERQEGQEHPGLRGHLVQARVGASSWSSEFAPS
row,Compound,A2A Receptor inhibition rate (%) at 10^−7 mol/L
1,"5-Amino-2-(2-furyl)-7-(2-phenylthienyl)[1,2,4]triazolo[1,5-c]pyrimidine [Compound 65]",96%

# Same assay, conditions: test compound 10^−7 mol/L; 3H-CGS 21680 binding, rat corpus striatum; read-out: A2A Receptor inhibition rate (%) at 10^−7 mol/L
row,Compound,inhibition at 0.1 µM
1,"CC(=O)NCCNCc1ccccc1-c1cc2nc(-c3ccco3)nn2c(N)n1 [Compound 7, 5-Amino-7-{2-[2-(N-acetylamino)ethylaminomethyl]phenyl}-2-(2-furyl)[1,2,4]triazolo[1,5-c]pyrimidine monohydrochloride]",64%
2,"CC(=O)NCCNCc1ccc(-c2cc3nc(-c4ccco4)nn3c(N)n2)cc1 [Compound 16, 7-{4-[2-(N-acetylamino)ethylaminomethyl]phenyl}-5-amino-2-(2-furyl)[1,2,4]triazolo[1,5-c]pyrimidine monohydrochloride]",36%
3,"COc1cc(CNCc2ccc(-c3cc4nc(-c5ccco5)nn4c(N)n3)cc2)cc(OC)c1 [Compound 17, 5-Amino-7-[4-(3,5-dimethoxybenzylaminomethyl)phenyl]-2-(2-furyl)[1,2,4]triazolo[1,5-c]pyrimidine monohydrochloride]",70%
4,"COC(C)(C)c1cc2nc(-c3ccco3)nn2c(N)n1 [Compound 25, 5-Amino-2-(2-furyl)-7-(1-methyl-1-methoxyethyl)[1,2,4]-triazolo[1,5-c]pyrimidine]",47%
5,"COc1ccc(CNCc2cc3nc(-c4ccco4)nn3c(N)n2)cc1OC [Compound 42, 5-Amino-7-(3,4-dimethoxybenzylaminomethyl)-2-(2-furyl)-[1,2,4]triazolo[1,5-c]pyrimidine dihydrochloride]",62%
6,"COc1cc(CNCc2cc3nc(-c4ccco4)nn3c(N)n2)cc(OC)c1 [Compound 43, 5-Amino-7-[(3,5-dimethoxybenzylamino)methyl]-2-(2-furyl)-[1,2,4]triazolo[1,5-c]pyrimidine dihydrochloride]",60%
7,"Nc1nc(CNCCc2ccccn2)cc2nc(-c3ccco3)nn12 [Compound 44, 5-Amino-7-[2-(2-pyridyl)ethylaminomethyl]-2-(2-furyl)-[1,2,4]triazolo[1,5-c]pyrimidine dihydrochloride]",56%
8,"Nc1nc(CN2CCN(CC3CC3)CC2)cc2nc(-c3ccco3)nn12 [Compound 50, 5-Amino-7-[4-(cyclopropylmethyl)piperazin-1-ylmethyl]-2-(2-furyl)[1,2,4]triazolo[1,5-c]pyrimidine dihydrochloride]",65%
9,"Nc1nc(/C=C/CNCC2CC2)cc2nc(-c3ccco3)nn12 [Compound 68, 5-Amino-7-[3-(cyclopropylmethylamino)-(E)-propan-1-en-1-yl]-2-(2-furyl)[1,2,4]triazolo[1,5-c]pyrimidine]",96%
10,"CCN(Cc1ccccc1)C(=O)c1cc2nc(-c3ccco3)nn2c(N)n1 [Compound 99, 5-Amino-2-(2-furyl)[1,2,4]triazolo[1,5-c]pyrimidine-7-carboxylic acid (N-benzyl-N-ethyl)amide]",69%
11,"CN(Cc1ccco1)C(=O)c1cc2nc(-c3ccco3)nn2c(N)n1 [Compound 101, 5-Amino-2-(2-furyl)[1,2,4]triazolo[1,5-c]pyrimidine-7-carboxylic acid [N-(2-furylmethyl)-N-methyl]amide]",83%
12,"N#CCCN(Cc1cccnc1)C(=O)c1cc2nc(-c3ccco3)nn2c(N)n1 [Compound 103, 5-Amino-2-(2-furyl)[1,2,4]triazolo[1,5-c]pyrimidine-7-carboxylic acid [N-(2-cyanoethyl)-N-(3-pyridylmethyl)]amide]",54%
13,"CN(Cc1cccc(F)c1)C(=O)c1cc2nc(-c3ccco3)nn2c(N)n1 [Compound 120, 5-Amino-2-(2-furyl)[1,2,4]triazolo[1,5-c]pyrimidine-7-carboxylic acid [N-(3-fluorobenzyl)-N-methyl]amide monohydrochloride]",61%
14,"CN(Cc1cccnc1Cl)C(=O)c1cc2nc(-c3ccco3)nn2c(N)n1 [Compound 128, 5-Amino-2-(2-furyl)[1,2,4]triazolo[1,5-c]pyrimidine-7-carboxylic acid [N-(2-chloropyridin-3-ylmethyl)-N-methyl]-amide]",59%
15,"Cc1ncccc1CN(C)C(=O)c1cc2nc(-c3ccco3)nn2c(N)n1 [Compound 134, 5-Amino-2-(2-furyl)[1,2,4]triazolo[1,5-c]pyrimidine-7-carboxylic acid [N-methyl-N-(2-methylpyridin-3-ylmethyl)]-amide]",60%
16,"Nc1nc(C(=O)N2CCCCC2)cc2nc(-c3ccco3)nn12 [Compound 142, 5-Amino-2-(2-furyl)[1,2,4]triazolo[1,5-c]pyrimidin-7-yl piperidino ketone]",71%

# Tested on: not given
# Assay: not given
# Conditions: not given
row,Compound,melting point
1,"COCc1cc2nc(-c3ccco3)nn2c(N)n1 [Compound 23, 5-Amino-2-(2-furyl)-7-methoxymethyl[1,2,4]triazolo[1,5-c]pyrimidine]",167.2 to 167.6 °C
2,"CCOCc1cc2nc(-c3ccco3)nn2c(N)n1 [Compound 24, 5-Amino-7-ethoxymethyl-2-(2-furyl) [1,2,4]triazolo[1,5-c]pyrimidine]",153.8 to 154.6 °C
3,"Nc1nc(COc2ccccc2F)cc2nc(-c3ccco3)nn12 [Compound 30, 5-Amino-7-(2-fluorophenoxymethyl)-2-(2-furyl) [1,2,4]-triazolo[1,5-c]pyrimidine]",196.8 to 197.1 °C
4,"Nc1nc(COc2cccnc2)cc2nc(-c3ccco3)nn12 [Compound 31, 5-Amino-2-(2-furyl)-7-(pyridin-3-yloxymethyl)[1,2,4]triazolo[1,5-c]pyrimidine]",253.5 to 254 °C
5,"Nc1nc(COc2ccccn2)cc2nc(-c3ccco3)nn12 [Compound 32, 5-Amino-2-(2-furyl)-7-(pyridin-2-yloxymethyl)[1,2,4]-triazolo[1,5-c]pyrimidine]",229 to 229.2 °C
6,"Nc1nc(COc2ccncc2)cc2nc(-c3ccco3)nn12 [Compound 33, 5-Amino-2-(2-furyl)-7-(pyridin-4-yloxymethyl)[1,2,4]-triazolo[1,5-c]pyrimidine]",> 300 °C
7,"COc1ccc(CN(Cc2cc3nc(-c4ccco4)nn3c(N)n2)C(C)=O)cc1OC [Compound 34, 7-[(N-acetyl-3,4-dimethoxybenzylamino)methyl]-5-amino-2-(2-furyl)[1,2,4]triazolo[1,5-c]pyrimidine]",136 to 136.5 °C
8,"Nc1nc(CNc2ccccc2)cc2nc(-c3ccco3)nn12 [Compound 36, 5-Amino-7-anilinomethyl-2-(2-furyl)[1,2,4]triazolo[1,5-c]-pyrimidine]",279.2 to 279.6 °C
9,"Nc1nc(Cn2ccccc2=O)cc2nc(-c3ccco3)nn12 [Compound 37, 5-Amino-2-(2-furyl)-7-(2-oxopyridin-1-ylmethyl)[1,2,4]-triazolo[1,5-c]pyrimidine]",239.2 to 239.6 °C
10,"CC(=O)NCCNCc1cc2nc(-c3ccco3)nn2c(N)n1 [Compound 45, 5-Amino-7-[2-(N-acetylamino)ethylaminomethyl]-2-(2-furyl)-[1,2,4]triazolo[1,5-c]pyrimidine]",190.5 to 190.9 °C
11,"Nc1nc(-c2ccncc2)cc2nc(-c3ccco3)nn12 [Compound 54, 5-Amino-2-(2-furyl)-7-(4-pyridyl)[1,2,4]triazolo[1,5-c]-pyrimidine]",279.2 to 279.9 °C
12,"Nc1nc(-c2cncnc2)cc2nc(-c3ccco3)nn12 [Compound 56, 5-Amino-2-(2-furyl)-7-(5-pyrimidinyl)[1,2,4]triazolo[1,5-c]-pyrimidine]",271 °C (dec.)
13,"Cc1noc(C)c1-c1cc2nc(-c3ccco3)nn2c(N)n1 [Compound 57, 5-Amino-7-(3,5-dimethylisoxazol-4-yl)-2-(2-furyl)[1,2,4]-triazolo[1,5-c]pyrimidine]",227.8 to 228.5 °C
14,"Nc1nc(-c2csc(NCCN3CCOCC3)n2)cc2nc(-c3ccco3)nn12 [Compound 59, 5-Amino-2-(2-furyl)-7-[2-(2-morpholinoethylamino)thiazol-4-yl][1,2,4]triazolo[1,5-c]pyrimidine]",274.7 to 275 °C (dec.)
15,"Nc1nc(-c2ccc(CO)cc2)cc2nc(-c3ccco3)nn12 [Compound 61, 5-Amino-2-(2-furyl)-7-(4-hydroxymethylphenyl)[1,2,4]-triazolo[1,5-c]pyrimidine]",239.6 to 239.9 °C
16,"Nc1nc(C(=O)NCc2ccc(F)c(F)c2)cc2nc(-c3ccco3)nn12 [Compound 82, 5-Amino-2-(2-furyl)[1,2,4]triazolo[1,5-c]pyrimidine-7-carboxylic acid (3,4-difluorobenzyl)amide]",254.5 to 254.9 °C
17,"COCCN(CCOC)C(=O)c1cc2nc(-c3ccco3)nn2c(N)n1 [Compound 88, 5-Amino-2-(2-furyl)[1,2,4]triazolo[1,5-c]pyrimidine-7-carboxylic acid [N,N-bis(2-methoxyethyl)]amide]",190.5 to 190.8 °C
18,"Nc1nc(C(=O)NCCCn2ccnc2)cc2nc(-c3ccco3)nn12 [Compound 90, 5-Amino-2-(2-furyl)[1,2,4]triazolo[1,5-c]pyrimidine-7-carboxylic acid [3-(1-imidazolyl)propyl]amide]",198.5 to 198.8 °C
19,"CCNC(=O)c1cc2nc(-c3ccco3)nn2c(N)n1 [Compound 98, 5-Amino-2-(2-furyl)[1,2,4]triazolo[1,5-c]pyrimidine-7-carboxylic acid ethylamide]",178.5 to 178.9 °C
